Entries after “also recorded” stand apart in the source; their conditions may differ.
Experiments:
Tip60 = molecular target: T1, Tip60 (Homo sapiens, UniProt Q92993); assay: In vitro histone acetylation activity assay (Tip60); type: biochemical; conditions: 20 μM compound, vs Tip60+DMSO
T1 construct: purchased Active Motif 81975
Description: HAT assays were performed according to manufacturer's instructions in HAT Assay Kit (Active Motif 56100). Briefly, 375 ng Tip60 protein (Active motif: 81975) was incubated with 50 μM Histone H4 peptide, 50 μM Acetyl-CoA and indicated drug concentrations for 30 minutes at room temperature. After stopping the reaction and developing free sulfhydryl groups, […] was recorded at excitation 360-390 nm and emission 460-490 nm using Glomax fluorescence microplate reader. Specific enzyme activity (pmol/min/μg) was calculated by 1. Subtracting background fluorescence from that of assay samples to obtain arbitrary fluorescence units (AFU); and (2) Dividing the difference by the incubation time to obtain AFU/minute. 3. Dividing the AFU/minute by the slope of standard curve in AFU/pmol to obtain the rate in pmol/minute. 4. Dividing pmol/min by the amount of enzyme used to obtain final readings in pmol/minute/μg.

purified p300 HAT = purified p300 HAT (Homo sapiens, UniProt Q09472); assay: In vitro histone acetylation activity assay (p300); type: biochemical; conditions: HAT assays, 20 μM
[1] = system: Drosophila Tip60 knockdown model; assay: Larval line crossing / reaching the wall assay in Tip60-RNAi knockdown model; type: in vivo; conditions: for rescue of Tip60 knockdown induced locomotion deficits (line crossing in 30 seconds): 3rd instar Tip60-RNAi larvae, compound in fly food
[2] = system: Drosophila Alzheimer's disease model (APP); assay: Larval line crossing assay in APP Alzheimer's disease model; type: in vivo; conditions: 3rd instar APP larvae, compound in fly food, range of concentrations
[3] = system: Drosophila Alzheimer's disease model (APP); assay: Eclosion assay (lethality) in APP Alzheimer's disease model; type: in vivo; conditions: compound in fly food
Description: All fly lines were raised on standard yeast Drosophila medium (Applied Scientific Jazz Mix Drosophila Food, Thermo Fischer Scientific) at 25° C. with 12/12-h light/dark cycle. The pan-neuronal driver elav^C155-Gal4, transgenic Tip60-RNAi-mediated knock-down (UAS-Tip60 RNAi) and the transgenic UAS lines carrying human APP 695 isoform (UAS-APP) were obtained from Bloomington Drosophila Stock Center. For neural Tip60 knockdown and APP expression, the elav^C155-Gal4 driver line was crossed with UAS-Tip60RNAi or UAS-APP and the progeny was collected as Tip60 knockdown model (elav^C155-Gal4/UAS-Tip60 RNAi) or APP associated AD model (elav^C155-Gal4/UAS-APP). For wild-type control, the elav^C155-Gal4 driver line was crossed with itself. Model validation was performed by confirming reduced Tip60 mRNA levels in Tip60 RNAi model as compared to wildtype using real-time PCR.
Compounds were synthesized by Enamine, Princeton Molecular and ChemBridge. […]
The P10 and P13 compound's functional effectiveness in rescuing AD associated lethality that occurs as a culmination of later stage neurodgenerative progression was assessed using an eclosion assay (FIG. 9C). Briefly, larvae were reared on food either with compounds dissolved in DMSO or without compounds (DMSO vehicle) and the number of flies that eclosed from their pupal cases over a 7 day period were counted.

T1 sequence (Q92993 whole entry): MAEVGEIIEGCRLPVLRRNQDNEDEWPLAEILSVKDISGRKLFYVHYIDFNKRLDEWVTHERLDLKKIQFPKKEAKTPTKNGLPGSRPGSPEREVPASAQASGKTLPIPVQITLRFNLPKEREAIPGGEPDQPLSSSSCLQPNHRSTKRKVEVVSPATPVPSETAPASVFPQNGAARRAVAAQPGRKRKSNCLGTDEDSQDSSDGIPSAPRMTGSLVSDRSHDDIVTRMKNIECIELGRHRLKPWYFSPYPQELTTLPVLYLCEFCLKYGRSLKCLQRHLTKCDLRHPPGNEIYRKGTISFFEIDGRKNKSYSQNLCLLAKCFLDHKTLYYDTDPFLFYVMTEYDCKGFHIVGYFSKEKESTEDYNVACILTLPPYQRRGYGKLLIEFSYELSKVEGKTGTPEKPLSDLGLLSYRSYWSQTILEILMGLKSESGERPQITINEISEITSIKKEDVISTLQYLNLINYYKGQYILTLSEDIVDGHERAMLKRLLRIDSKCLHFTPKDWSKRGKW
Sequence of purified p300 HAT (Q09472 whole entry, species assumed): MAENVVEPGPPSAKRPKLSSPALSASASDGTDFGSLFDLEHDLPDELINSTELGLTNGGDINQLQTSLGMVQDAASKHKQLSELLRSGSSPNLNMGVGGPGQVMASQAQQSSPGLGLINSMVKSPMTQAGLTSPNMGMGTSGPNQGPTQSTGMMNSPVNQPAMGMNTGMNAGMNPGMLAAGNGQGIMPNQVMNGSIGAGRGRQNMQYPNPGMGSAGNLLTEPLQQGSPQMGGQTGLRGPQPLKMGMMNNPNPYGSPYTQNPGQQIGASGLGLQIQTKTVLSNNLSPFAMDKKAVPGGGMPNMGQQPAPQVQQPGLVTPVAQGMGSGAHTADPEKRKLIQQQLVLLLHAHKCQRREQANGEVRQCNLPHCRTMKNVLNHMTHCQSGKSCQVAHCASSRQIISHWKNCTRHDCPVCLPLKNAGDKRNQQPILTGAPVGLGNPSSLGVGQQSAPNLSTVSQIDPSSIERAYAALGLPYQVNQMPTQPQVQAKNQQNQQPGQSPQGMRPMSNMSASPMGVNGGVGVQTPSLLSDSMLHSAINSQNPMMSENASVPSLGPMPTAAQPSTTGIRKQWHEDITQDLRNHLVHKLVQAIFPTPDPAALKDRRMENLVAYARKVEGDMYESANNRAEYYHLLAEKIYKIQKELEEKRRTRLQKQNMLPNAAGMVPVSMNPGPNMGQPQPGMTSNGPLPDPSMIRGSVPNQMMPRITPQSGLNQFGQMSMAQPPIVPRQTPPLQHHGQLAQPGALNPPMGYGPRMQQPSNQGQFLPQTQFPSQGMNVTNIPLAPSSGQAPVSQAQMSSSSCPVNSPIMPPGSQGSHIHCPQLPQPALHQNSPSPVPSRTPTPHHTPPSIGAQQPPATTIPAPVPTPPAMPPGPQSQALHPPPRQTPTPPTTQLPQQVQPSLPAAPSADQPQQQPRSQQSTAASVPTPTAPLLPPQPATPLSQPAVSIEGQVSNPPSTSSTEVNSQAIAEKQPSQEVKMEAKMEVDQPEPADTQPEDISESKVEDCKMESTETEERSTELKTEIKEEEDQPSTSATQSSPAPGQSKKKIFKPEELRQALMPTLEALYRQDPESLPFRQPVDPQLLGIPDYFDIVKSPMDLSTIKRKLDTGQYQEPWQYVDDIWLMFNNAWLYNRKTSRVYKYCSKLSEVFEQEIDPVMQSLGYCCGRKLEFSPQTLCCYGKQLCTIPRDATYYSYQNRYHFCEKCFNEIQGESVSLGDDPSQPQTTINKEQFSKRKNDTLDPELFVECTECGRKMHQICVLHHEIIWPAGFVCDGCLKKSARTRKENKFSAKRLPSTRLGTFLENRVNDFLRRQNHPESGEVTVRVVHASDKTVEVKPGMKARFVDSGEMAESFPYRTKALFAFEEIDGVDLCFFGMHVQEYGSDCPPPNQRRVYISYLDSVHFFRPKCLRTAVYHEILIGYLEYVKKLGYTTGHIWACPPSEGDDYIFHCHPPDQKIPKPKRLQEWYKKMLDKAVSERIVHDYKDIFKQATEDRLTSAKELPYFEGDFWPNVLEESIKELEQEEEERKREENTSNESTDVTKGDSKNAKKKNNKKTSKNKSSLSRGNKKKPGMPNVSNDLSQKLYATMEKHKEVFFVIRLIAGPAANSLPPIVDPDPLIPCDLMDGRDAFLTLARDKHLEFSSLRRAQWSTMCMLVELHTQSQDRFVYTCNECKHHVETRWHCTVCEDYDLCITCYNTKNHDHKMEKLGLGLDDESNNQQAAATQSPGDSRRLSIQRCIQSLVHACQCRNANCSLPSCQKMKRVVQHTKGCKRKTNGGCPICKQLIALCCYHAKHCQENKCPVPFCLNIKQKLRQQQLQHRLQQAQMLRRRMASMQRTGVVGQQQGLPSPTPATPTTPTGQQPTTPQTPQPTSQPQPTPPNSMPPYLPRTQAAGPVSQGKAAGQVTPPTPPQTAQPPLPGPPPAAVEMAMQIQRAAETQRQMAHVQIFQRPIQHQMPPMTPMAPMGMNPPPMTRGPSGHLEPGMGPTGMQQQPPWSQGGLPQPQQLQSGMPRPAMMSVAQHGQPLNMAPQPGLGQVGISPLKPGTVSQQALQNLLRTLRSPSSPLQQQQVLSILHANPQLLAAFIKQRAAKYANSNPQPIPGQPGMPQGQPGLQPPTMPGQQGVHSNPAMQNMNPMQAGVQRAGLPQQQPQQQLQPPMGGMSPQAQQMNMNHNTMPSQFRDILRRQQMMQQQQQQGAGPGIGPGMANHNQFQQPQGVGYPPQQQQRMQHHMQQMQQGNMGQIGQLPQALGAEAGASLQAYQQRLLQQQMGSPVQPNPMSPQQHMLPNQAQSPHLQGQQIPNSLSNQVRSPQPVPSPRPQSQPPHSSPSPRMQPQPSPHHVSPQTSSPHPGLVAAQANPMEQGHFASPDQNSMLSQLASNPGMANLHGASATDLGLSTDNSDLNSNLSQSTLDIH

specificity for Tip60 over p300 (purified p300 HAT) | SMILES | effect on Tip60's HAT activity (Histone H4 acetylation, fluorescence) (Tip60) | rescue of Tip60 knockdown induced locomotion deficits (line crossing in 30 seconds) [1] | rescue of AD associated locomotion defects (line crossing, reaching wall) [2] | rescue of AD associated lethality (flies eclosed over 7 day period) [3] | ability of larvae to cross plate and reach the wall ([1]; 1 μM drug concentration) | restoration of locomotor activity (line crossing) ([1]; 1 μM drug concentration)
highest specificity for Tip60 over p300 | Cc1nc2c(cnn2C(C)C)cc1C(=O)NCc1ccc([C@H](C)O)c(C)n1 [Compound P10, (S)-N-((5-(1-hydroxyethyl)-6-methylpyridin-2-yl)methyl)-1-isopropyl-6-methyl-1H-pyrazolo[3,4-b]pyridine-5-carboxamide] | enhanced Tip60's HAT activity; also recorded: highest level of Tip60 HAT activation | rescue locomotor speed defect | consistent and robust rescue | significant rescue of lethality | – | –
highest specificity for Tip60 over p300 | CC(=O)Nc1cccc(CNC(=O)c2cnc3ccccc3c2C(F)(F)F)c1 [Compound P13, N-(3-acetamidobenzyl)-4-(trifluoromethyl)quinoline-3-carboxamide] | enhanced Tip60's HAT activity; also recorded: highest level of Tip60 HAT activation | rescue locomotor speed defect | consistent and robust rescue | significant rescue of lethality; also recorded: more robust effects | improved the performance of larvae in reaching the wall | best performer in restoring locomotor activity to wild-type levels

From patent US20250099482A1, “TIP60 NEURO-EPIGENETIC MODULATORS” (Drexel University, priority 2023, published 2025)
